Drawing on patent US10710986B2, “PD-1/PD-L1 inhibitors” (Gilead Sciences, Inc., priority 2018, dated 2020), this text covers IC50 for 53 compounds.

Usually IC50 stands for the concentration that inhibits the measured activity by half.

Molecules are shown by their SMILES.

This assay deals with PD-1/PD-L1 (Homo sapiens (Human), UniProt Q9NZQ7). Description: PD-1/PD-L1 biochemical protein-protein interaction assay (ALPHA). As to conditions: 0.3 nM His tagged PD-L1, 2.5 nM biotinylated Fc-PD-1, 60 minutes at 25° C., read-out: IC50 PD-L1-PD1.
Sequence of PD-1/PD-L1 (Q9NZQ7 19-238): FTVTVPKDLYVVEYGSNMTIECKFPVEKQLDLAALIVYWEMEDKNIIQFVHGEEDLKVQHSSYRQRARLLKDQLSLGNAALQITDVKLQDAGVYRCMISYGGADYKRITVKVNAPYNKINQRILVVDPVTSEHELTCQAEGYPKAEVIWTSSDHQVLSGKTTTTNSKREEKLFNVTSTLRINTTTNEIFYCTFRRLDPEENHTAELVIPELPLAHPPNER
As for `COc1nc(-c2cccc(-c3cccc(-c4cnc(CN[C@H]5CCOC5)c(OC)n4)c3Cl)c2Cl)cnc1CNC[C@@H]1CCC(=O)N1` [compound 359], the IC50 was 0.132 nM.
As for `COc1nc(-c2cccc(-c3cccc(-c4cnc(CN[C@@H]5CCOC5)c(OC)n4)c3Cl)c2Cl)cnc1CNC[C@@H]1CCC(=O)N1` [compound 360], the figure is 0.401 nM.
For the compound `COc1nc(-c2cccc(-c3cccc(-c4cnc(CN[C@H]5C[C@H](NC(C)=O)C5)c(OC)n4)c3Cl)c2Cl)cnc1CNC[C@@H]1CCC(=O)N1` [compound 361], the IC50 was found to be 0.13 nM.
`COc1nc(-c2cccc(-c3cccc(-c4cnc(CN[C@H]5C[C@@H](NC(C)=O)C5)c(OC)n4)c3Cl)c2Cl)cnc1CNC[C@@H]1CCC(=O)N1` [compound 362]: the IC50 is 0.074 nM.
As for `COc1nc(-c2cccc(-c3cccc(-c4cnc(CNC5CC6(C5)CS(=O)(=O)C6)c(OC)n4)c3Cl)c2Cl)cnc1CNC[C@@H]1CCC(=O)N1` [compound 363], the figure is 0.424 nM; as for `COc1nc(-c2cccc(-c3cccc(-c4cnc(CN[C@H]5C[C@H](OC)C5)c(OC)n4)c3Cl)c2Cl)cnc1CNC[C@@H]1CCC(=O)N1` [compound 364], 0.244 nM.
As for `COc1nc(-c2cccc(-c3cccc(-c4cnc(CN[C@H]5C[C@@H](OC)C5)c(OC)n4)c3Cl)c2Cl)cnc1CNC[C@@H]1CCC(=O)N1` [compound 365], the figure is 0.07 nM; as for `COc1nc(-c2cccc(-c3cccc(-c4cnc(CN[C@H]5C[C@H](C(C)(C)O)C5)c(OC)n4)c3Cl)c2Cl)cnc1CNC[C@@H]1CCC(=O)N1` [compound 366], 0.115 nM.
The result for `COc1nc(-c2cccc(-c3cccc(-c4cnc(CN5CC6(C5)CS(=O)(=O)C6)c(OC)n4)c3Cl)c2Cl)cnc1CNC[C@@H]1CCC(=O)N1` [compound 367] reads 0.064 nM.
Consider `COc1nc(-c2cccc(-c3cccc(-c4cnc(CN5CC6(CNC(=O)C6)C5)c(OC)n4)c3Cl)c2Cl)cnc1CNC[C@@H]1CCC(=O)N1` [compound 368], for which the half-inhibitory concentration (IC50) came out at 0.064 nM.
The result for `COc1nc(-c2cccc(-c3cccc(-c4cnc(CN5CC(NC(C)=O)C5)c(OC)n4)c3Cl)c2Cl)cnc1CNC[C@@H]1CCC(=O)N1` [compound 369] reads 0.078 nM; that for `COc1nc(-c2cccc(-c3cccc(-c4cnc(CNC[C@@H]5CCC(=O)N5)c(OC)n4)c3Cl)c2Cl)cnc1CNCCn1ccccc1=O` [compound 370], 0.064 nM.
As for `COc1nc(-c2cccc(-c3cccc(-c4cnc(CN5CC6(CCC(=O)N6)C5)c(OC)n4)c3Cl)c2Cl)cnc1CNC[C@@H]1CCC(=O)N1` [compound 371], the figure is 0.213 nM.
The result for `COc1nc(-c2cccc(-c3cccc(-c4cnc(CNC[C@@H]5CCC(=O)N5)c(OC)n4)c3Cl)c2Cl)cnc1CNCCN1CCCC1=O` [compound 372] reads 0.104 nM; that for `COc1nc(-c2cccc(-c3cccc(-c4cnc(CNC[C@@H]5CCC(=O)N5)c(OC)n4)c3Cl)c2Cl)cnc1CNCCNC(C)=O` [compound 373], 0.13 nM; that for `COc1nc(-c2cccc(-c3cccc(-c4cnc(CNC[C@@H]5CCC(=O)N5)c(OC)n4)c3Cl)c2Cl)cnc1CNCCO` [compound 374], 0.183 nM.
With `COc1nc(-c2cccc(-c3cccc(-c4cnc(CNC(C)(C)CNC(C)=O)c(OC)n4)c3Cl)c2Cl)cnc1CNC[C@@H]1CCC(=O)N1` [compound 375], the IC50 turned out to be 0.459 nM.
For `COc1nc(-c2cccc(-c3cccc(-c4cnc(CNCC(C)(C)NC(C)=O)c(OC)n4)c3Cl)c2Cl)cnc1CNC[C@@H]1CCC(=O)N1` [compound 376], the concentration for half-maximal inhibition (IC50) stood at 0.208 nM.
In the case of `COc1nc(-c2cccc(-c3cccc(-c4cnc(CNC(C)(C)CO)c(OC)n4)c3Cl)c2Cl)cnc1CNC[C@@H]1CCC(=O)N1` [compound 377], the concentration for half-maximal inhibition (IC50) came out at 0.098 nM.
In the case of `COc1nc(-c2cccc(-c3cccc(-c4cnc(CNCC(C)(C)O)c(OC)n4)c3Cl)c2Cl)cnc1CNC[C@@H]1CCC(=O)N1` [compound 378], the half-maximal inhibitory concentration (IC50) came out at 0.396 nM.
As for `COc1nc(-c2cccc(-c3cccc(-c4cnc(CN5CC(O)C5)c(OC)n4)c3Cl)c2Cl)cnc1CNC[C@@H]1CCC(=O)N1` [compound 379], the figure is 0.155 nM; as for `COc1nc(-c2cccc(-c3cccc(-c4cnc(CN5CC[C@@H](O)C5)c(OC)n4)c3Cl)c2Cl)cnc1CNC[C@@H]1CCC(=O)N1` [compound 380], 0.203 nM; as for `COc1nc(-c2cccc(-c3cccc(-c4cnc(CN[C@@H]5CCC[C@@H]5O)c(OC)n4)c3Cl)c2Cl)cnc1CNC[C@@H]1CCC(=O)N1` [compound 381], 0.085 nM.
The result for `COc1nc(-c2cccc(-c3cccc(-c4cnc(CNCC(C)(C)O)c(OC)n4)c3Cl)c2Cl)cnc1CNCC(C)(C)O` [compound 382] reads 0.289 nM.
The result for `COc1nc(-c2cccc(-c3cccc(-c4cnc(CN[C@@H]5CCC[C@@H]5O)c(OC)n4)c3Cl)c2Cl)cnc1CN[C@@H]1CCC[C@@H]1O` [compound 383] reads 0.887 nM; that for `COc1nc(-c2cccc(-c3cccc(-c4cnc(CNC(C)(C)CO)c(OC)n4)c3Cl)c2Cl)cnc1CNC(C)(C)CO` [compound 384], 0.154 nM.
On to `COc1nc(-c2cccc(-c3cccc(-c4cnc([C@H](C)N)c(OC)n4)c3Cl)c2Cl)cnc1[C@H](C)N` [compound 385], for which the IC50 was 0.292 nM.
As for `COc1nc(-c2cccc(-c3cccc(-c4cnc([C@@H](C)N)c(OC)n4)c3Cl)c2Cl)cnc1[C@@H](C)N` [compound 386], the figure is 0.879 nM.
The result for `COc1nc(-c2cccc(-c3cccc(-c4cnc(CN[C@@H]5CC[C@@H]6CC(=O)N[C@@H]65)c(OC)n4)c3Cl)c2Cl)cnc1CNC[C@@H]1CCC(=O)N1` [compound 387] reads 0.625 nM; that for `COc1nc(-c2cccc(-c3cccc(-c4cnc(CN[C@@H]5CC[C@@H]6CC(=O)N[C@@H]65)c(OC)n4)c3Cl)c2Cl)cnc1CN[C@@H]1CC[C@@H]2CC(=O)N[C@@H]21` [compound 388], 1.22 nM.
The result for `COc1nc(-c2cccc(-c3cccc(-c4cnc(CN5CC6(CNC(=O)C6)C5)c(OC)n4)c3Br)c2Cl)cnc1CN1CC2(CNC(=O)C2)C1` [compound 389] reads 0.211 nM; that for `COc1nc(-c2cccc(-c3cccc(-c4cnc(CN5CC6(CCC(=O)N6)C5)c(OC)n4)c3Br)c2Cl)cnc1CN1CC2(CCC(=O)N2)C1` [compound 390], 0.146 nM.
With `COc1nc(-c2cccc(-c3cccc(-c4cnc(CN5CC(O)C5)c(OC)n4)c3Br)c2Cl)cnc1CN1CC(O)C1` [compound 391], the concentration for half-maximal inhibition (IC50) is 0.232 nM.
As for `COc1nc(-c2cccc(-c3cccc(-c4cnc(CNC[C@H]5CCC(=O)N5)c(OC)n4)c3Br)c2Cl)cnc1CNC[C@H]1CCC(=O)N1` [compound 392], the figure is 0.246 nM.
The result for `COc1nc(-c2cccc(-c3cccc(-c4cnc(CN5CC6(CNC(=O)C6)C5)c(OC)n4)c3Br)c2F)cnc1CN1CC2(CNC(=O)C2)C1` [compound 393] reads 2.23 nM.
As for `COc1nc(-c2cccc(-c3cccc(-c4cnc(CN5CC6(CCC(=O)N6)C5)c(OC)n4)c3Br)c2F)cnc1CN1CC2(CCC(=O)N2)C1` [compound 394], the figure is 1.78 nM.
Regarding `COc1nc(-c2cccc(-c3cccc(-c4cnc(CN5CC(O)C5)c(OC)n4)c3Br)c2F)cnc1CN1CC(O)C1` [compound 395], the IC50 amounted to 9.24 nM.
In the case of `COc1nc(-c2cccc(-c3cccc(-c4cnc(CNC[C@@H]5CCC(=O)N5)c(OC)n4)c3Br)c2F)cnc1CNC[C@@H]1CCC(=O)N1` [compound 396], the concentration for half-maximal inhibition (IC50) stood at 2.02 nM.
The result for `COc1nc(-c2cc(F)cc(-c3cc(F)cc(-c4cnc(CNC[C@@H]5CCC(=O)N5)c(OC)n4)c3Cl)c2Cl)cnc1CNC[C@@H]1CCC(=O)N1` [compound 397] reads 0.561 nM.
The result for `COc1nc(-c2cccc(-c3cc(F)cc(-c4cnc(CNC[C@@H]5CCC(=O)N5)c(OC)n4)c3Cl)c2Cl)cnc1CNC[C@@H]1CCC(=O)N1` [compound 398] reads 0.195 nM; that for `COc1nc(-c2cccc(-c3cc(F)cc(-c4cnc(CN5CC(O)C5)c(OC)n4)c3Cl)c2Cl)cnc1CN1CC(O)C1` [compound 399], 0.324 nM.
Regarding `COc1nc(-c2cccc(-c3cccc(-c4cnc(CN5CC(OC)C5)c(OC)n4)c3Cl)c2Cl)cnc1CN1CC(OC)C1` [compound 400], the IC50 came to 0.173 nM.
In the case of `COc1nc(-c2cccc(-c3cccc(-c4cnc(CN(C)C)c(OC)n4)c3Cl)c2Cl)cnc1CN(C)C` [compound 401], the IC50 came to 0.295 nM.
As for `CNCc1ncc(-c2cccc(-c3cccc(-c4cnc(CNC)c(OC)n4)c3Cl)c2Cl)nc1OC` [compound 402], the figure is 0.175 nM; as for `COc1nc(-c2cccc(-c3cccc(-c4cnc(CNC[C@@H]5CCC(=O)N5)c(OC)n4)c3Cl)c2Cl)cnc1CNCC1CC(=O)NC1=O` (some centres unmarked) [compound 403], 0.07 nM; as for `COc1nc(-c2cccc(-c3cccc(-c4cnc(CN5CCC(c6cnccn6)C5)c(OC)n4)c3Cl)c2Cl)cnc1CNC[C@@H]1CCC(=O)N1` (some centres unmarked) [compound 404], 0.07 nM.
The result for `COc1nc(-c2cccc(-c3cccc(-c4cnc(CN5CCC(c6cccnc6)C5)c(OC)n4)c3Cl)c2Cl)cnc1CNC[C@@H]1CCC(=O)N1` (some centres unmarked) [compound 405] reads 0.16 nM; that for `COc1nc(-c2cccc(-c3cccc(-c4cnc(CN5CCC(c6ccccn6)C5)c(OC)n4)c3Cl)c2Cl)cnc1CNC[C@@H]1CCC(=O)N1` (some centres unmarked) [compound 406], 0.28 nM; that for `COc1nc(-c2cccc(-c3cccc(-c4cnc(CN5CCC(O)(CC#N)C5)c(OC)n4)c3Cl)c2Cl)cnc1CNC[C@@H]1CCC(=O)N1` (some centres unmarked) [compound 407], 0.186 nM.
The result for `COc1nc(-c2cccc(-c3cccc(-c4cnc(CN5CCC(c6ncccn6)C5)c(OC)n4)c3Cl)c2Cl)cnc1CNC[C@@H]1CCC(=O)N1` (some centres unmarked) [compound 408] reads 0.139 nM.
For `COc1nc(-c2cccc(-c3cccc(-c4cnc(CN5CCC(C6CCCO6)C5)c(OC)n4)c3Cl)c2Cl)cnc1CNC[C@@H]1CCC(=O)N1` (some centres unmarked) [compound 409], the IC50 turned out to be 0.124 nM.
As for `COc1nc(-c2cccc(-c3cccc(-c4cnc(CN5CCC(c6ccncc6)C5)c(OC)n4)c3Cl)c2Cl)cnc1CNC[C@@H]1CCC(=O)N1` (some centres unmarked) [compound 410], the figure is 0.316 nM; as for `COc1nc(-c2cccc(-c3cccc(-c4cnc(CN5CCC(C6CCOC6)C5)c(OC)n4)c3Cl)c2Cl)cnc1CNC[C@@H]1CCC(=O)N1` (some centres unmarked) [compound 411], 0.321 nM.
